Patent US20250325517A1, “ORAL DOSAGE FORMS OF ELRAGLUSIB” (Actuate Therapeutics, Inc., priority 2022, published 2025)
Values after ≈ are worked out from the molar mass of the structure shown.

Key:
Assay type in all cases: physicochemical
[1] = Solubility of elraglusib in acetone, acetone:water and THF with and without polymers (24 h, visual and HPLC); conditions: for visual observation: stirred
Protocol: The solubility of elraglusib API with and without polymers of interest was evaluated in acetone. […] Samples were prepared according to Table 6-13. […] Additional studies were performed to determine if an increased water content would prevent formation of the solvate precipitate and more dilute solutions were tested for potential ASD processing.

[2] = Quantitative solubility by HPLC in organic solvents and surfactants; conditions: for solubility: thermodynamic from solid, read-out: Solubility (n = 2) by HPLC
From the text: The HPLC method 1 was used for solubility, stability monitoring at 438 nm, and drug loading measurements of the ASD is summarized in Table 2A-31 and the HPLC method 2 was used for stability monitoring at 210 nm, which is summarized in Table 2A-32.

[3] = Elra:PVAP and Elra:CAP ASD stability study (XRPD, mDSC, TGA, HPLC, ssNMR); conditions: crystallinity marker peak of API
Protocol: Both ASDs stored remained amorphous up to 12 weeks storage under the above-mentioned conditions (FIG. 21). The mDSC of the stability samples was carried out in a hermetically sealed pan without any pin hole, to determine the Tg in the presence of residual solvent or moisture (i.e., wet Tg).
An HPLC chromatogram was also obtained using HPLC monitored at 210 nm for a sample stored for 12 weeks at different conditions.
The first derivative was applied to the stability sample spectra (FIGS. 25-29). For pure amorphous samples, ssNMR produces gaussian curves that when applied to first derivative become a flat baseline. Crystalline material produces Laplacian curves by ssNMR which can be clearly observed after applying the first derivative.
Signal to noise ratio of API reference was 8.18. In all four stability samples, the signal to noise ratio for the first derivative peak at 87 ppm remained <2.
Solid-state NMR experiments were performed on a 2 channel Bruker NEO spectrometer (Bruker, Billerica, MA) operating at 100.52 MHz for 13C and 399.71 MHz for 1H. A Chemagnetics APEX probe, refitted with a 7 mm magic angle spinning module (Revolution NMR, Fort Collins, CO) was used to acquire the data. Each sample was packed into a 7 mm zirconia rotor with Kel-F spacers. The magic angle spinning (MAS) frequency that was used to acquire all of the data was 5 kHz. […]

[4] = Solubility of elraglusib in simulated intestinal fluid
Protocol: Solubility of elraglusib in simulated intestinal fluid with varying levels of SIF powder was measured to support formulation development, facilitate interpretation of in vitro dissolution, and support potential modeling and interpretation of in vivo pharmacokinetic data. The obtained solubility data are shown in Table 6-19 and is generally aligned with data previously collected for elraglusib.

[5] = 50 mg/mL elraglusib solutions in 12 Vehicle Variants, HPLC with and without syringe filtration; conditions: no precipitation or haziness, no visible particulates
Protocol: An initial study prepared 50 mg/mL elraglusib solutions in 12 Vehicle Variants.
Each Vehicle Variant was made to 50 mg/mL with elraglusib and was tested (with and without syringe filtration) with respect to: (1) elraglusib main peak Area %, (2) related substance RRT 0.96 Area %, and (3) related Substance Area % RRT 0.97.

SMILES: Cn1cc(C2=C(c3coc4ccc(F)cc34)C(=O)NC2=O)c2cc3c(cc21)OCO3 [elraglusib, 3-(5-fluorobenzofuran-3-yl)-4-(5-methyl-5H-[1,3]dioxolo[4,5-f]indol-7-yl)-1H-pyrrole-2,5-dione]
- visual observation ([1]; Table 6-17 Sample 4: 1.84% w/w in 95:5 acetone:water, 3.5 hours): No change
- visual observation ([1]; Table 6-17 Sample 4: 1.84% w/w in 95:5 acetone:water, 4 hours): No change
- visual observation ([1]; Table 6-17 Sample 4: 1.84% w/w in 95:5 acetone:water, 21.5 hours): No change
- visual observation ([1]; Table 6-17 Sample 5: 1.54% w/w in 95:5 acetone:water, 30 min): Translucent
- visual observation ([1]; Table 6-17 Sample 5: 1.54% w/w in 95:5 acetone:water, 1 hour): No change
- visual observation ([1]; Table 6-17 Sample 5: 1.54% w/w in 95:5 acetone:water, 2 hours): No change
- visual observation ([1]; Table 6-17 Sample 5: 1.54% w/w in 95:5 acetone:water, 3.5 hours): No change
- visual observation ([1]; Table 6-17 Sample 5: 1.54% w/w in 95:5 acetone:water, 4 hours): No change
- visual observation ([1]; Table 6-17 Sample 5: 1.54% w/w in 95:5 acetone:water, 21.5 hours): No change
- solubility in acetone ([1]; crystallizes at room temperature at static conditions): 4 % w/w
- solubility at 24 h ([1]; organic solvent or mixture, thermodynamic from solid, acetone, 24 hours, read-out: measured solubility by HPLC): 13.1 mg/mL (≈ 32.3 mM)
- solubility ([2]; DCM, no surfactant, organic solvent or mixture): 15.1 mg/mL (≈ 37.3 mM)
- solubility ([2]; H2O with Kolliphor EL 10% w/v, aqueous with cosolvent or surfactant or cyclodextrin, H2O, Kolliphor EL 10% w/v): 0.12 mg/mL (≈ 0.297 mM)
- solubility ([2]; H2O with Labrasol 10% w/v, aqueous with cosolvent or surfactant or cyclodextrin, H2O, Labrasol 10% w/v): 0.16 mg/mL (≈ 0.396 mM)
- solubility ([2]; H2O with Tween 80 10% w/v, aqueous with cosolvent or surfactant or cyclodextrin, H2O, Tween 80 10% w/v): 0.24 mg/mL (≈ 0.594 mM)
- solubility ([2]; THF (with stabilizer BHT), no surfactant, organic solvent or mixture): 25.3 mg/mL (≈ 62.5 mM)
- solubility ([2]; THF with Kolliphor HS 15 10% w/v, organic solvent or mixture, THF, Kolliphor HS 15 10% w/v): 47.6 mg/mL (≈ 118 mM)
- solubility ([2]; THF with Labrasol 10% w/v, organic solvent or mixture, THF, Labrasol 10% w/v): 52.3 mg/mL (≈ 129 mM)
- solubility ([2]; THF with Poloxamer P188 10% w/v, organic solvent or mixture, THF, Poloxamer P188 10% w/v): 49.8 mg/mL (≈ 123 mM)
- solubility ([2]; THF with TPGS 10% w/v, organic solvent or mixture, THF, TPGS 10% w/v): 46.8 mg/mL (≈ 116 mM)
- solubility ([2]; THF with Tween 80 10% w/v, organic solvent or mixture, THF, Tween 80 10% w/v): 49.8 mg/mL (≈ 123 mM)
- Solubility (n = 2) by HPLC ([2]; THF, Kolliphor EL 10% w/v): 48.0 mg/mL (≈ 119 mM)
- Solubility (n = 2) by HPLC ([2]; THF, no surfactant): 52.7 mg/mL (≈ 130 mM)
- solubility ([2]; THF:H2O (90:10) with Labrasol 10% w/v, organic solvent or mixture, THF:H2O (90:10), Labrasol 10% w/v): 54.8 mg/mL (≈ 136 mM)
- Solubility (n = 2) by HPLC ([2]; THF:H2O (90:10), no surfactant): 61.2 mg/mL (≈ 151 mM)
- solubility ([2]; acetone, no surfactant, organic solvent or mixture): 13 mg/mL (≈ 32.2 mM)
- solubility ([2]; organic solvent or mixture, DCM:Acetone (1:1), no surfactant): 19.8 mg/mL (≈ 49 mM)
- solubility ([2]; organic solvent or mixture, DCM:Acetone (5:1), no surfactant): 24.5 mg/mL (≈ 60.5 mM)
- solubility ([2]; organic solvent or mixture, DCM:EtOH (1:1), no surfactant): 16.4 mg/mL (≈ 40.6 mM)
- solubility ([2]; organic solvent or mixture, DCM:MeOH (8:2), no surfactant): 11.8 mg/mL (≈ 29.1 mM)
- ssNMR Signal to Noise (87-96 ppm), first derivative spectra [3]: 8.18
- Average Concentration, 2 hour ([4]; 0.01N HCl, initial pH 2, [NaTC] 0 mM, 2 hour): 2.1 µg/mL
- Average Concentration, 24 hour ([4]; 0.01N HCl, initial pH 2, [NaTC] 0 mM): 1.4 µg/mL
- Average Concentration, 2 hour ([4]; 0.5% Simulated Intestinal Fluid (SIF), initial pH 6.5, [NaTC] 6.7 mM, 2 hour): 6.0 µg/mL
- Average Concentration, 24 hour ([4]; 0.5% Simulated Intestinal Fluid (SIF), initial pH 6.5, [NaTC] 6.7 mM): 4.7 µg/mL
- Average Concentration, 2 hour ([4]; 2% SIF, initial pH 6.5, [NaTC] 26.8 mM, 2 hour): 17.0 µg/mL
- Average Concentration, 24 hour ([4]; 2% SIF, initial pH 6.5, [NaTC] 26.8 mM): 17.3 µg/mL
- Average Concentration, 2 hour ([4]; Blank FaSSIF, initial pH 6.5, [NaTC] 0 mM, 2 hour): 2.5 µg/mL
- Average Concentration, 24 hour ([4]; Blank FaSSIF, initial pH 6.5, [NaTC] 0 mM): 2.6 µg/mL
- Average Concentration, 2 hour ([4]; Blank FeSSIF, initial pH 5, [NaTC] 0 mM, 2 hour): 2.4 µg/mL
- Average Concentration, 24 hour ([4]; Blank FeSSIF, initial pH 5, [NaTC] 0 mM): 2.6 µg/mL
- Average Concentration, 24 hour ([4]; FaSSIF, initial pH 6.5, [NaTC] 3 mM): 5.7 µg/mL
- solubility ([4]; FaSSIF, pH 6.5, fassif, thermodynamic from solid, read-out: measured solubility of crystalline elraglusib): 0.0057 mg/mL (≈ 0.0141 mM)
- Average Concentration, 2 hour ([4]; FeSSIF, initial pH 5, [NaTC] 15 mM, 2 hour): 8.4 µg/mL
- Average Concentration, 24 hour ([4]; FeSSIF, initial pH 5, [NaTC] 15 mM): 11.6 µg/mL
- pH dependence of equilibrium solubility ([4]; simulated intestinal fluid): essentially independent of pH
- solubility thermodynamic at 2 h ([4]; thermodynamic from solid, FaSSIF, initial pH 6.5, [NaTC] 3 mM, 2 hour, read-out: Average Concentration, 2 hour): 0.0052 mg/mL (≈ 0.0129 mM)
- solubility in Vehicle Variants (visual) [5]: remained soluble at 50 mg/mL
